From patent publication EP1801112A1, “Bicyclic pyrimidines and bicyclic 3,4-dihydropyrimidines as inhibitors of cellular proliferation” (Warner-Lambert Company LLC, priority 1998, dated 1999)
pIC50: −log10 of the molar value. Where two headings read alike, the source gives them in different places.

Legend:
[1] = tested on: human umbilical vein endothelial cells; assay: Human Umbilical Vein Endothelial Cell (HUVEC) Proliferation Assay; assay type: cell-based; conditions: 96 h, four days incubation, Sulphorhodamine B staining
Description: The compounds of Formula I are useful for treating cell proliferative disorders concerning angiogenesis and have been evaluated in a human umbilical vein endothelial cell in vitro assay. The assay described below is used to determine the anti-proliferative effects of the invention compounds on human umbilical vein endothelial cells, and the results are shown in Table 7.
Human Umbilical Vein Endothelial Cell (HUVEC) Proliferation Assay
Ninety-six well tissue culture plates are seeded with 100 µL of cells in all wells of rows A->G with row H remaining empty as a blank. HUVEC (Clonetics, San Diego, CA) are grown in endothelial growth medium (EGM media, Clonetics), containing 2% fetal bovine serum. The cell seed density for HUVEC cells is 20,000 per mL. C6 cells (ATCC Cat. No. CCL-107) are seeded at 6000 per mL in F10 medium (nutrient mixture Hemes) supplemented with 15% horse serum, 2.5% fetal bovine serum, and 6.0 mL 200 mM Glutamine per 600 mL medium. A90 cells (Suny, Buffalo, NY) are also seeded at 6000 per mL, but they are grown in RPMI 1640 (Roswell Park Memorial Institute) plus 10% fetal bovine serum. Unless noted otherwise, tissue culture media and components are from GIBCO. The cells are allowed to incubate at 37°C, 5% CO2, and 100% relative humidity for 16-24 hours.
Invention compounds are prepared by dissolving them in DMSO at a concentration of 5 mM, followed by dilution to 50 µM in EGM media. One hundred microliters of the compounds are applied to duplicate wells in column 1 of the previously prepared cell plates. Column 1 row H receives 100 µL of EGM media. The compounds in column 1 are diluted across the plates using serial twofold dilutions.
The plates are incubated as above for an additional four days before being stained with Sulphorhodamine B. Staining is performed as follows: The media is removed from the plates, and the cells are fixed using 10% trichloroacetic acid for 30 minutes at 4°C. Following fixation, the plates are washed five times with distilled water after which 100 µL of Sulphorhodamine B is added to each well. Sulphorhodamine B is dissolved in 1% acetic acid to a concentration of .075%. Following staining, excess stain is removed from the wells, and the plates are washed four times with 1% acetic acid. The plates are allowed to air dry before the bound dye is solubilized in 100 µL of 10 mM unbuffered TRIS base. Absorbance is measured on a 96 well plate reader at […] using a reference filter wavelength of 630 nm. […] Sulphorhodamine B and TRIS are from Sigma Chemical Company. Acetic acid and trichloroacetic acid are from Mallinckrodt AR.

[2] = molecular target: cdk4/D (Homo sapiens, UniProt P11802); assay: Cyclin-Dependent Kinase 4 (cdk4) Assay; assay type: biochemical; conditions: for IC50: 25 µM ATP, retinoblastoma substrate, read-out: IC50 (µM) cdk4/D
Description: A typical assay, for instance, measures inhibitory activity against the cyclin D dependent kinase 4 enzyme (cdk4/D). […] The cdk4 assay was carried out as follows.
Cyclin-Dependent Kinase 4 (cdk4) Assay
Enzyme assays for IC50 determinations (Tables 1 and 2) and kinetic evaluation were performed in 96 well filter plates (Millipore MADVN6550). The total volume was 0.1 mL containing a final concentration of 20 mM TRIS (tris[hydroxymethyl]aminomethane), at pH 7.4, 50 mM NaCl, 1 mM dithiothreitol, 10 mM MgCl2, 25 µM ATP containing 0.25 µCi of [^32P]ATP, 20 ng of cdk4, 1 µg of retinoblastoma, and appropriate dilutions of a compound of the present invention. All components except the ATP were added to the wells, and the plate was placed on a plate mixer for 2 minutes. The reaction was started by adding [^32P]ATP and the plate was incubated at 25°C for 15 minutes. The reaction was terminated by addition of 0.1 mL of 20% trichloroacetic acid (TCA). The plate was kept at 4°C for at least 1 hour to allow the substrate to precipitate. The wells were then washed five times with 0.2 mL of 10% TCA and ^32P incorporation was determined with a beta plate counter (Wallac Inc., Gaithersburg, MD).

[3] = molecular target: cdk2/cyclinA (Homo sapiens, UniProt P24941); assay: Cyclin-Dependent Kinase Assay cdk2/cyclinA; assay type: biochemical
Description: (§1) Cyclin-Dependent Kinase Assays (cdk2/cyclinE, cdk2/cyclinA, cdc2/cyclinB)
(§2) All components except the ATP were added to the wells, and the plate was placed on a plate mixer for 2 minutes. The reaction was begun by addition of [^32P]ATP, and the plate was incubated at 25°C for 15 minutes. The reaction was terminated by addition of 0.1 mL of 20% TCA. The plate was kept at 4°C for at least 1 hour to allow the substrate to precipitate. The wells were then washed five times with 0.2 mL of 10% TCA and ^32P incorporation determined with a beta plate counter (Wallac Inc., Gaithersburg, MD).

[4] = molecular target: cdc2/cyclinB (Homo sapiens, UniProt P06493); assay: Cyclin-Dependent Kinase Assay cdc2/cyclinB; assay type: biochemical
Description: as §1, §2

[5] = molecular target: T1, c-Src (Homo sapiens, UniProt P12931); assay: c-Src protein kinase assay; assay type: biochemical; conditions: poly GluTyr substrate, 5 µM ATP
T1 construct: made in house; host or cells: baculovirus infected insect cells
Description: The assay was carried out as follows: c-Src kinase was purified from baculovirus infected insect cell lysates using an antipeptide monoclonal antibody directed against the N-terminal amino acids (amino acids 2-17) of c-Src. The antibody, covalently linked to 0.65 µm latex beads, was added to a suspension of insect cell lysis buffer comprised of 150 mM NaCl, 50 mM Tris pH 7.5, 1 mM DTT, 1% NP-40, 2 mM EGTA, 1 mM sodium vanadate, 1 mM PMSF, 1 µg/mL each of leupeptin, pepstatin, and aprotinin. Insect cell lysate containing c-Src protein was incubated with these beads for 3 to 4 hours at 4°C with rotation. At the end of the lysate incubation, the beads were rinsed three times in lysis buffer, resuspended in lysis buffer containing 10% glycerol, and frozen. These latex beads were thawed, rinsed three times in assay buffer (40 mM Tris, pH 7.5, […]) and suspended in the same buffer. In a Millipore 96-well plate with a 0.65 µm polyvinylidine membrane bottom were added the reaction components: 10 µL c-Src beads, 10 µL of 2.5 mg/mL poly GluTyr substrate, 5 µM ATP containing 0.2 µCi labeled ^32P-ATP, 5 µL DMSO containing inhibitors or as a solvent control, and buffer to make the final volume 125 µL. The reaction was started at room temperature by addition of the ATP and quenched 10 minutes later by the addition of 125 µL of 30% TCA, 0.1 M sodium pyrophosphate for 5 minutes on ice. […] The filters were then punched, counted in a liquid scintillation counter, and the data examined for inhibitory activity in comparison to a known inhibitor such as erbstatin. […]

[6] = molecular target: cdk2/cyclinE (Homo sapiens, UniProt P24941); assay: Cyclin-Dependent Kinase Assay cdk2/cyclinE; assay type: biochemical
Description: as §1, §2

[7] = molecular target: T2, FGF-1 (flg) receptor tyrosine kinase (Homo sapiens, UniProt P11362); assay: FGF Receptor Tyrosine Kinase Assay; assay type: biochemical; conditions: glutamate-tyrosine co-polymer substrate, 50 µM ATP
T2 construct: amplify a fragment of DNA that codes for the intracellular tyrosine kinase domain; made in house; host or cells: SF9 insect cells (baculovirus); crude cell lysate used
Description: PDGF and FGF Receptor Tyrosine Kinase Assays
PCR primers were designed to amplify a fragment of DNA that codes for the intracellular tyrosine kinase domain. The fragment was inserted into a baculovirus vector, cotransfected with AcMNPV DNA, and the recombinant virus isolated. SF9 insect cells were infected with the virus to overexpress the protein, and the cell lysate was used for the assay. Assays were performed in 96-well plates (100 µL/incubation/well), and conditions were optimized to measure the incorporation of ^32P from γ^32P-ATP into a glutamate-tyrosine co-polymer substrate. Briefly, to each well was added 82.5 µL of incubation buffer containing 25 mM Hepes (pH 7.0), 150 mM NaCl, 0.1% Triton X-100, 0.2 mM PMSF, 0.2 mM Na3VO4, 10 mM MnCl2, and 750 µg/mL of Poly (4:1) glutamate-tyrosine followed by 2.5 µL of inhibitor and 5 µL of enzyme lysate (7.5 µg/µL FGF-TK or 6.0 µg/µL PDGF-TK) to initiate the reaction. […] The reaction was terminated by the addition of 100 µL of 30% trichloroacetic acid (TCA) containing 20 mM sodium pyrophosphate and precipitation of material onto glass fiber mats (Wallac). […] Nonspecific activity was defined as radioactivity retained on the filters following incubation of samples with buffer alone (no enzyme). Specific enzymatic activity (enzyme plus buffer) was defined as total activity minus nonspecific activity. […]

cdk4/D, sequence (P11802 whole entry): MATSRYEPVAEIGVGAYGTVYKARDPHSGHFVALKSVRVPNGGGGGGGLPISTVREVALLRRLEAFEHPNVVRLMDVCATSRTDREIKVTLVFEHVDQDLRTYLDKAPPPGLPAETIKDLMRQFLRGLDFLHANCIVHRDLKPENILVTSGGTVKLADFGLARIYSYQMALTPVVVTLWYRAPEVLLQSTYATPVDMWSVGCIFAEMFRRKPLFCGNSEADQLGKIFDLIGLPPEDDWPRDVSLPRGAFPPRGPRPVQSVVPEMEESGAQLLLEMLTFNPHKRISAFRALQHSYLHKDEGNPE
cdk4/D, sequence (P24385 whole entry, further chain): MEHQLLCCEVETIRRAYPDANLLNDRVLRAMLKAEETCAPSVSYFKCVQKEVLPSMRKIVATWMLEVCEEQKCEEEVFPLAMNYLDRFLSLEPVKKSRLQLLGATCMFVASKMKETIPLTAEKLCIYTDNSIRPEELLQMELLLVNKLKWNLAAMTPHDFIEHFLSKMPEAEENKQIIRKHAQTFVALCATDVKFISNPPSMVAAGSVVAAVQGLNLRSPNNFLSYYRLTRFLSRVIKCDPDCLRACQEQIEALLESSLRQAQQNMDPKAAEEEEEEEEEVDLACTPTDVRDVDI
T2 sequence (P11362 478-767 limits assumed): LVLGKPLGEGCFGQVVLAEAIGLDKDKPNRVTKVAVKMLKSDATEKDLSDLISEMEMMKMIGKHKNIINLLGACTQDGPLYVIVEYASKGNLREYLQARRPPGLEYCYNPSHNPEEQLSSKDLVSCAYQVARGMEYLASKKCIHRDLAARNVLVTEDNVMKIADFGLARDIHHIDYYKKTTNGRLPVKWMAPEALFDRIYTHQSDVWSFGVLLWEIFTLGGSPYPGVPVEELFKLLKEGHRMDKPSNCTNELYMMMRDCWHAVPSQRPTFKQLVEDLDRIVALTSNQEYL
T1 sequence (P12931 whole entry): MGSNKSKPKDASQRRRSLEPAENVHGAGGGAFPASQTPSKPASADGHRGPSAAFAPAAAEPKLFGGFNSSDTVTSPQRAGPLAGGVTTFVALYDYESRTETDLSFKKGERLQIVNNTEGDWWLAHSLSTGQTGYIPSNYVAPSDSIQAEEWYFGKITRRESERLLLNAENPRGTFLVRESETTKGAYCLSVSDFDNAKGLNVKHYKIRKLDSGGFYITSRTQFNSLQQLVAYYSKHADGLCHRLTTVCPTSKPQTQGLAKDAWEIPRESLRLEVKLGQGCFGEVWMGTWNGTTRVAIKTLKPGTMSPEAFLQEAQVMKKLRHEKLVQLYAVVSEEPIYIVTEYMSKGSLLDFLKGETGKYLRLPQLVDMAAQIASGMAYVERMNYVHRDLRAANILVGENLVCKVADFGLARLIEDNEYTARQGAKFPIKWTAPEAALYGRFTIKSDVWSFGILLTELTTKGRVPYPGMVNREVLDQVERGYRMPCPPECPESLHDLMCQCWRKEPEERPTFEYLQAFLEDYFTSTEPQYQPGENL
cdc2/cyclinB, sequence (P06493 whole entry): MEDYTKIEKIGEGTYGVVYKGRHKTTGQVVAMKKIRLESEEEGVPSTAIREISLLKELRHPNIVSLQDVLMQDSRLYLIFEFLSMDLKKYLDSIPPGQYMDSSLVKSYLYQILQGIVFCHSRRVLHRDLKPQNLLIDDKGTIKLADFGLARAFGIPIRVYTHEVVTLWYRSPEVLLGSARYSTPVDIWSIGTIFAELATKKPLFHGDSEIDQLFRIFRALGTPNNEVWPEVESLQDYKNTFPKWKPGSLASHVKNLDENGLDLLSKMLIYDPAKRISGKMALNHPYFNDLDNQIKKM
cdc2/cyclinB, sequence (P14635 whole entry, further chain): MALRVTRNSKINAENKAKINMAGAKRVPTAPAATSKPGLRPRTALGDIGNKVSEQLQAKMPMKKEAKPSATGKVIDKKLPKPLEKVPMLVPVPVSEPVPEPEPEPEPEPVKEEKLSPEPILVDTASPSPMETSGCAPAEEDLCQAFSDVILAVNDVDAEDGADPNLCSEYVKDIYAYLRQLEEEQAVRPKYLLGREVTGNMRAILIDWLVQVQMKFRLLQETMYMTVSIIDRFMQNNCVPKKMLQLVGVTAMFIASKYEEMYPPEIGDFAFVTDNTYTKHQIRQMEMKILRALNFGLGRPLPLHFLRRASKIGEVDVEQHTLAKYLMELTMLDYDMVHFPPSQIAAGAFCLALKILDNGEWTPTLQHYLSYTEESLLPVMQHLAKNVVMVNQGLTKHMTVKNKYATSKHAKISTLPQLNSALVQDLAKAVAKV

SMILES | pIC50 [1] | pIC50 [5] | IC50 [7] [µM] | other results
COc1cc(OC)cc(N2Cc3cnc(NCCCCN4CCN(C)CC4)nc3NC2=O)c1 [Example 54b, 3-(3,5-Dimethoxy-phenyl)-7-[4-(4-methyl-piperazin-1-yl)-butylamino]-3,4-dihydro-pyrimido[4,5-d]pyrimidin-2(1H)-one] | 5.30 | – | – | –
CCN1C(=O)N(c2cc(OC)cc(OC)c2)Cc2cnc(NCCCCCN3CCN(C)CC3)nc21 [Example 59, 3-(3,5-Dimethoxy-phenyl)-1-ethyl-7-[5-(4-methyl-piperazin-1-yl)-pentylamino]-3,4-dihydro-pyrimido[4,5-d]pyrimidin-2(1H)-one] | 6.95 | – | – | –
CCN(CC)CCCNc1ncc2c(n1)N(CC)C(=O)N(c1cc(OC)cc(OC)c1)C2 [Example 60, 7-(3-Diethylamino-propylamino)-3-(3,5-dimethoxy-phenyl)-1-ethyl-3,4-dihydro-pyrimido[4,5-d]pyrimidin-2(1H)-one] | 6.03 | – | – | –
CCN(CC)CCCNc1ncc2c(n1)NC(=O)N(c1cc(OC)cc(OC)c1)C2 [Example 55, 7-(3-Diethylamino-propylamino)-3-(3,5-dimethoxy-phenyl)-3,4-dihydropyrimido[4,5-d]pyrimidin-2(1H)-one] | < 4.60 | – | – | –
O=C1NCc2cnc(Nc3ccc(-n4cccc4)cc3)nc2N1C1CCCC1 [Example 14, 1-Cyclopentyl-7-[4-(pyrrol-1-yl)phenylamino]-3,4-dihydropyrimido[4,5-d]pyrimidin-2(1H)-one] | – | < 4.30 | – | pIC50 [2]: 4.75; pIC50 [3]: 5.29; pIC50 [4]: < 4.70
O=C1NCc2cnc(Nc3ccc(N4CCC(O)CC4)cc3)nc2N1C1CCCC1 [Example 15, 1-Cyclopentyl-7-[4-(4-hydroxypiperidin-1-yl)phenylamino]-3,4-dihydropyrimido[4,5-d]pyrimidin-2(1H)-one] | – | 5.62 | 0.05 to 0.5 | IC50 [2]: 0.7 µM; IC50 ([6]; retinoblastoma substrate, read-out: IC50 (µM) cdk2/E): 2.2 µM; IC50 ([3]; retinoblastoma substrate, read-out: IC50 (µM) cdk2/A): 0.6 µM; IC50 ([4]; retinoblastoma substrate, read-out: IC50 (µM) cdkl/B): 16.8 µM
COc1cc(OC)cc(N2Cc3cnc(NCCNCc4ccncc4)nc3NC2=O)c1 [Example 54, 3-(3,5-Dimethoxy-phenyl)-7-{2-[(pyridin-4-ylmethyl)-amino]-ethylamino}-3,4-dihydro-pyrimido[4,5-d]pyrimidin-2(1H)-one] | < 4.60 | – | – | –
O=C1NCc2cnc(Nc3ccc(N4CCCCC4CO)cc3)nc2N1C1CCCC1 (stereo not drawn) [Example 19, 1-Cyclopentyl-7-[4-(2-hydroxymethylpiperidin-1-yl)phenylamino]-3,4-dihydro-pyrimido[4,5-d]pyrimidin-2(1H)-one] | – | 5.35 | 0.05 to 0.5 | pIC50 [2]: 6.30
COc1cc(OC)cc(N2Cc3cnc(NCCCCCN4CCN(C)CC4)nc3NC2=O)c1 [Example 54c, 3-(3,5-Dimethoxy-phenyl)-7-[5-(4-methyl-piperazin-1-yl)-pentylamino]-3,4-dihydro-pyrimido[4,5-d]pyrimidin-2(1H)-one] | 5.24 | – | – | –
CCN1C(=O)N(c2cc(OC)cc(OC)c2)Cc2cnc(NCCCN3CCN(C)CC3)nc21 [Example 57, 3-(3,5-Dimethoxy-phenyl)-1-ethyl-7-[3-(4-methyl-piperazin-1-yl)-propylamino]-3,4-dihydro-pyrimido[4,5-d]pyrimidin-2(1H)-one] | 6.82 | – | – | –
O=C1NCc2cnc(Nc3ccc(N4CCCCC4)cc3)nc2N1C1CCCC1 [Example 10, 1-Cyclopentyl-7-[4-(piperidin-1-yl)phenylamino]-3,4-dihydropyrimido[4,5-d]pyrimidin-2(1H)-one] | – | < 4.30 | 0.64 | IC50 [2]: 1.55 µM
CC(C)n1c(=O)ncc2cnc(Nc3ccc(N4CCN(C)CC4)cc3)nc21 [Example 40, 1-Isopropyl-7-[4-(4-methylpiperazin-1-yl)phenylamino]pyrimido[4,5-d]pyrimidin-2(1H)-one] | – | 5.37 | 1.13 | pIC50 [6]: 4.78; pIC50 [3]: 5.35
CC(C)N1C(=O)NCc2cnc(Nc3ccc(N4CCN(C)CC4)cc3)nc21 [Example 22, 1-Isopropyl-7-[4-(4-methylpiperazin-1-yl)phenylamino]-3,4-dihydropyrimido[4,5-d]pyrimidin-2(1H)-one] | – | 5.82 | – | pIC50 [2]: 6.47; pIC50 [3]: 5.03
